Source: paper PMC6982808, “Design and Biological Evaluation of Colchicine-CD44-Targeted Peptide Conjugate in an In Vitro Model of Crystal Induced Inflammation” (Molecules, 2019)
Ends that are not written are not given here.

Columns and labels:
[1] = test system: CD44 receptor on THP-1 macrophages; test: CD44 surface expression on THP-1 macrophages under conditions of inflammation (flow cytometry); format: cell-based, human; conditions: 24 h, serum-free medium
Description: THP-1 monocytes were cultured in RPMI 1640 medium supplemented with 10% heat-inactivated FBS, 10 mM HEPES, 2 mM glutamine, 100 U/I penicillin, and 100 μg/mL streptomycin and maintained at 37 °C and 5% CO2. THP-1 monocytes were differentiated into THP-1 macrophages using 50 ng/mL phorbol-12-myristate 13-acetate (PMA) for 24 h. Subsequently, adherent cells were washed twice with serum-free medium and rested for another 24 h in PMA-free RPMI + 10% FBS medium. CD44 expression on THP-1 macrophages was conducted using flow cytometry following incubation with the CD44-specific antibody (1:1000 dilution) for 1 h followed by cell pelleting and washing the cell pellet with PBS. THP-1 macrophages were then incubated with DyLight 488 goat anti-mouse IgG at 1:1000 dilution for 30 min. […] THP-1 macrophages were washed with PBS, collected, and CD44 expression was determined using flow cytometry as described above.

THP-1 macrophages [2] = test: MSU crystal phagocytosis by THP-1 macrophages (flow cytometry side-scatter, % cells in P2 region); format: cell-based, human
Description: THP-1 macrophages (500,000 cells per well) were treated with MSU crystals (100 μg/mL) ± HA (100 μg/mL) for 4 h. Subsequently, macrophages were collected, pelleted, and washed with PBS. MSU phagocytosis was determined by analyzing the change in cell side-scatter using a flow cytometer. Two regions of interest were identified: the P1 region representing the THP-1 macrophage population in the absence of MSU crystal exposure and the P2 region with increased cell side scatter indicative of MSU phagocytosis. Data are presented as the percentage of cells in the P2 region across different experimental groups.
Subsequently, cells were treated with MSU crystals (100 μg/mL) for 4 h. MSU phagocytosis by THP-1 macrophages was determined using flow cytometry as described above.

[3] = target: T1, recombinant human CD44 receptor (Homo sapiens, UniProt P16070); test: ELISA binding of coated P6 peptide or HA to CD44-IgG Fc fusion protein; conditions: for binding to the CD44 receptor (ELISA absorbance at 450 nm): wells coated 1 ng/mL to 1 μg/mL, CD44-IgG Fc 0.1 µg/mL, 1 h room temperature, three independent experiments
T1 construct: purchased R&D Systems
Description: Wells of high-binding microtiter plates were coated with either the P6 peptide or high molecular weight HA (molecular weight >1 million Da) in serial concentrations between 1 ng/mL and 1 μg/mL overnight in phosphate buffered saline (PBS) (100 µL per well) at 4 °C. […] CD44-IgG Fc fusion protein (R&D Systems) (0.1 µg/mL) in PBS + 0.05% Tween 20 (100 µL per well) was added to both coated and uncoated wells and incubated for 1 h at room temperature. Following washing with PBS + 0.1% Tween 20, anti-human IgG Fc-HRP (1:1000) was added and incubated at room temperature for 1 h, followed by washing three times with PBS + 0.05% Tween 20. Turbo TMB-ELISA substrate solution was added (100 µL per well), and absorbance intensity was determined at 450 nm. Absorbance values in the […] to adjust for any non-specific binding by CD44-IgFc.

THP-1 macrophages [4] = test: Cytotoxicity against THP-1 macrophages (Cell Counting Kit-8); conditions: 24 h, CCK-8; for cytotoxic effect against THP-1 macrophages (in words): 1, 10 and 25 μM, three independent experiments
Description: Subsequently, 10 μL of CCK-8 solution was added to each well and absorbance was measured 90 min later at 450 nm. Cytotoxicity was expressed as the percentage of viable cells following treatments.

THP-1 macrophages [5] = test: IL-8 secretion by MSU-stimulated THP-1 macrophages (ELISA); format: cell-based, human; conditions: 1, 10 and 25 μM, 24 h, then MSU 100 μg/mL 6 h; vs MSU alone
Description: (§1) THP-1 macrophages (500,000 cells per well) were treated with MSU crystals (100 μg/mL) for 2, 4, and 6 h. ROS staining solution (1:1000 ratio) was added to the wells and incubated for 1 h. Subsequently, cells were collected, washed, and cell-associated fluorescence was determined using flow cytometry. Media were collected at 2, 4, and 6 h, and IL-8 media concentrations were determined by ELISA. […] Subsequently, cells were treated with MSU crystals (100 μg/mL) for 6 h. ROS generation and IL-8 concentrations were determined as described above.

THP-1 macrophages [6] = test: ROS generation in MSU-stimulated THP-1 macrophages (flow cytometry); format: cell-based, human; conditions: 10 and 25 μM, 24 h, then MSU 100 μg/mL 6 h; vs MSU alone
Description: as §1

in vitro = conditions: human, cerebrospinal or other body fluid
Description: Using seven microcentrifuge tubes, a total of 50 μL of normal SF was diluted with 150 μL of PBS in each tube. Following equilibrating diluted SF to 37 ± 1 °C for 15 min, 50 μL of peptide stock solution (1 mM solution in 100% sterile water) was added to each tube. Next, at different time intervals (0, 1, 2, 3, 4, 6, and 24 h), an aliquot of the reaction solution (100 μL) was sampled. Cold methanol (200 μL) was added to each aliquot in order to precipitate proteins that were present in the SF. This was followed by cooling the solution to 4 °C for 15 min followed by centrifugation at 500 g for 15 min to precipitate SF proteins. To determine the proteolytic stability of the P6 peptide, the supernatant was injected into an analytical RP-HPLC C18 column. In order to measure the concentration of the P6 peptide isolated from SF, the area under the curve (AUC) of the P6 peptide at each time point was estimated using an average of four runs, and normalized to AUC values at time 0 and expressed as the percentage of AUC at time 0.

T1 sequence (P16070 with tags, fused parts or gaps limits assumed): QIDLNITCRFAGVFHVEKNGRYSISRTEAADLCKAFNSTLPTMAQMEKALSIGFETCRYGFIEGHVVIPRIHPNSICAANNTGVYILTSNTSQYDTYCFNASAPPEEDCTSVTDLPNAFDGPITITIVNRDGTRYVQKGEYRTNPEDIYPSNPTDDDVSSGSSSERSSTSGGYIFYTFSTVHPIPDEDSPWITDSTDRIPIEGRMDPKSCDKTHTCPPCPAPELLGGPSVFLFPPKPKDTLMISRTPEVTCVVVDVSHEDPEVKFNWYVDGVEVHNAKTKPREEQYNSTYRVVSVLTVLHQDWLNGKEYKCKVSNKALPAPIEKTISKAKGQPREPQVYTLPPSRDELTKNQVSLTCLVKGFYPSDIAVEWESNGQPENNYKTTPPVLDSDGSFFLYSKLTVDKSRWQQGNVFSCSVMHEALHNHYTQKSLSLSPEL

IL-1β: recombinant human IL-1β, proinflammatory cytokine
enhancement in cell surface CD44 protein staining compared to untreated control macrophages ([1]; IL-1β 10 ng/mL): approximately two-fold

hyaluronic acid [HA]
MSU phagocytosis by THP-1 macrophages (THP-1 macrophages [2]; 100 μg/mL co-treatment with MSU 100 μg/mL for 4 h): significantly reduced MSU phagocytosis
binding to the CD44 receptor (ELISA absorbance at 450 nm) [3]: concentration-dependent binding

O=c1[nH]c(=O)c2[nH]c(=O)[nH]c2[nH]1 [UA, uric acid]
enhancement in cell surface CD44 protein staining compared to untreated control macrophages ([1]; UA 10 mg/dL): approximately 3 fold

COc1cc2c(c(OC)c1OC)-c1ccc(OC)c(=O)cc1[C@@H](NC(C)=O)CC2 [colchicine]
MSU phagocytosis by THP-1 macrophages (THP-1 macrophages [2]; 1, 10 and 25 μM, 24 h pre-treatment, then MSU 100 μg/mL 4 h, vs MSU alone): reduced MSU phagocytosis
reduction of macrophage cell viability (THP-1 macrophages [4]; 1 μM): approximately 50%
reduction of macrophage cell viability (THP-1 macrophages [4]; 25 μM): approximately 80%
cytotoxic effect against THP-1 macrophages (in words) (THP-1 macrophages [4]): dose-dependent cytotoxic effect
IL-8 secretion (THP-1 macrophages [5]): reduced
ROS generation (THP-1 macrophages [6]): reduced

WYKGDKFLYLQNGIEAIADF-NH2 [P6 peptide]
MSU phagocytosis by THP-1 macrophages (THP-1 macrophages [2]; 10 and 25 μM, 24 h pre-treatment, then MSU 100 μg/mL 4 h, vs MSU alone): significantly reduced MSU phagocytosis
cytotoxic effect against THP-1 macrophages (in words) (THP-1 macrophages [4]): no cytotoxic effect
IL-8 secretion (THP-1 macrophages [5]): reduced
ROS generation (THP-1 macrophages [6]): reduced
difference between P6 peptide and HA binding to CD44 ([3]; across all coating concentrations 1 ng/mL to 1 μg/mL): no significant difference
binding to the CD44 receptor (ELISA absorbance at 450 nm) [3]: concentration-dependent binding
half-life at 200 μM (in vitro): ~4 h
